{
  "source": "patent US12343326B2",
  "about": "“Psychoactive medicines and their use for treating psychiatric and neurological conditions and disorders” (Transcend Therapeutics, Inc., priority 2021, dated 2025)",
  "assay_in_all_cases": "β-arrestin based GPCR screen (PathHunter / GPCRmax), antagonist mode",
  "key": {"[1]": {"target": "168 GPCRs (Homo sapiens, UniProt P32745)", "sequence (P32745 whole entry)": "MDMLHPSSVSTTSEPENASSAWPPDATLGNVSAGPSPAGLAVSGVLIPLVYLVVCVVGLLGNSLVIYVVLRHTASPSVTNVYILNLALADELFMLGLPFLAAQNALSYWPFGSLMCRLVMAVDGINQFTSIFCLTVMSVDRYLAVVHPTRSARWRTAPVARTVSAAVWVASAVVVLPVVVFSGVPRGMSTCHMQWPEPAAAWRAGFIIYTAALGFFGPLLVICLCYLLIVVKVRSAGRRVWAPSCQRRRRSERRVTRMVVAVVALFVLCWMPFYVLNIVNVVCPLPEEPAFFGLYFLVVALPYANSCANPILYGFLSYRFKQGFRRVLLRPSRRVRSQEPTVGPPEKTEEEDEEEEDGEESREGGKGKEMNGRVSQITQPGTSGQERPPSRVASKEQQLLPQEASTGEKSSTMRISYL"}, "[2]": {"target": "168 GPCRs (Homo sapiens, UniProt P61073)", "sequence (P61073 whole entry)": "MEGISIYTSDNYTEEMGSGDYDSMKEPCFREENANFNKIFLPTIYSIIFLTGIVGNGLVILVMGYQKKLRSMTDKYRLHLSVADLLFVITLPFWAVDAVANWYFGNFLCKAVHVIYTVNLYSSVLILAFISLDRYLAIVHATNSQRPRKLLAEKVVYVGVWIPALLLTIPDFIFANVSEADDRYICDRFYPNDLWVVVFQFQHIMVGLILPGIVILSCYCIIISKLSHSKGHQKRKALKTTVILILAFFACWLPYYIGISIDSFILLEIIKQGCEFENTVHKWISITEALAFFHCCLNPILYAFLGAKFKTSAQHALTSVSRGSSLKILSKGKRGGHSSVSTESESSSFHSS"}, "[3]": {"target": "168 GPCRs (Homo sapiens, UniProt P18089)", "settings": "ADRA2B, Antagonist"}, "[4]": {"target": "168 GPCRs (Homo sapiens, UniProt O95136)", "sequence (O95136 whole entry)": "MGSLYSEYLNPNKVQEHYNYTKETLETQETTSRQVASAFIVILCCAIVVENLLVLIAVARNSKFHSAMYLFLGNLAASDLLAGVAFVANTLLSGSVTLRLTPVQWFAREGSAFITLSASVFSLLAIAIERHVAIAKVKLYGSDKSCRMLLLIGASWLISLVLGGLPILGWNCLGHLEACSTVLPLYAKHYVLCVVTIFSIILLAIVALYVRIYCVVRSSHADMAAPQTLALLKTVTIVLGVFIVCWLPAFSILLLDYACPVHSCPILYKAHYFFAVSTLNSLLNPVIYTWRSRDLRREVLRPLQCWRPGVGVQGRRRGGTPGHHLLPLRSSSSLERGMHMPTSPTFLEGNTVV"}, "[5]": {"target": "168 GPCRs (Homo sapiens, UniProt O95977)", "sequence (O95977 whole entry)": "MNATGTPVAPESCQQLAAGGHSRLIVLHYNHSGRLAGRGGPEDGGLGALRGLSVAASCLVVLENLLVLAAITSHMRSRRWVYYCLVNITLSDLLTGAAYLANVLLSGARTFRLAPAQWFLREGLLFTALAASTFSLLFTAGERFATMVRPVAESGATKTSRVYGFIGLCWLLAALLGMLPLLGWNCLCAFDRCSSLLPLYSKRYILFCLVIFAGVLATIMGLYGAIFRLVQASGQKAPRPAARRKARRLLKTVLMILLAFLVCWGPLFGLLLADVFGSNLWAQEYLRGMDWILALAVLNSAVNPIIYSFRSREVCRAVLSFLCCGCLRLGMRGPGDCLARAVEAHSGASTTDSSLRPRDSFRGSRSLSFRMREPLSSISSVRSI"}, "[6]": {"target": "168 GPCRs (Homo sapiens, UniProt P46663)", "settings": "BDKRB1, Antagonist"}, "[7]": {"target": "168 GPCRs (Homo sapiens, UniProt P48546)", "sequence (P48546 22-466)": "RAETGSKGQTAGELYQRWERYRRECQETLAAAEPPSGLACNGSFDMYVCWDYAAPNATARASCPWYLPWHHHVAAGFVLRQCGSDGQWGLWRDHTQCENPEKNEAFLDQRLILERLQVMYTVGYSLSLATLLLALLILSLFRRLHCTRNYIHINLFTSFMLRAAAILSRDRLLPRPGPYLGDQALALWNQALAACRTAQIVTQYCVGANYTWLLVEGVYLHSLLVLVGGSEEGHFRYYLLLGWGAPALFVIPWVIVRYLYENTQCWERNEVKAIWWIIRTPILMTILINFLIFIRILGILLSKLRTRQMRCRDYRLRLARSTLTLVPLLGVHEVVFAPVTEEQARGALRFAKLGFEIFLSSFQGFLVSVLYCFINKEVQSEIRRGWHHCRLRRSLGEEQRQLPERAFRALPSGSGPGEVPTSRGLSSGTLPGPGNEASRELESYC", "settings": "GIPR"}, "[8]": {"target": "168 GPCRs (Homo sapiens, UniProt P21731)", "sequence (P21731 whole entry)": "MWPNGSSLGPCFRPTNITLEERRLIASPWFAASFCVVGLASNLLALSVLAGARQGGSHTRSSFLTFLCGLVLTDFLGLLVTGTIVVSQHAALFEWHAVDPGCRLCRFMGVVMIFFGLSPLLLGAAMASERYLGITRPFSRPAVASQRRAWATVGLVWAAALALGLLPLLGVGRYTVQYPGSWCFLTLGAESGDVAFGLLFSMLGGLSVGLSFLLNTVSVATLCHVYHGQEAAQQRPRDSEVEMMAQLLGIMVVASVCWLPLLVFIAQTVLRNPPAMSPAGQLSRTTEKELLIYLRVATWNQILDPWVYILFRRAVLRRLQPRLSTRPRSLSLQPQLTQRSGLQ", "settings": "TBXA2R"}, "[9]": {"target": "168 GPCRs (Homo sapiens, UniProt Q15077)", "sequence (Q15077 whole entry)": "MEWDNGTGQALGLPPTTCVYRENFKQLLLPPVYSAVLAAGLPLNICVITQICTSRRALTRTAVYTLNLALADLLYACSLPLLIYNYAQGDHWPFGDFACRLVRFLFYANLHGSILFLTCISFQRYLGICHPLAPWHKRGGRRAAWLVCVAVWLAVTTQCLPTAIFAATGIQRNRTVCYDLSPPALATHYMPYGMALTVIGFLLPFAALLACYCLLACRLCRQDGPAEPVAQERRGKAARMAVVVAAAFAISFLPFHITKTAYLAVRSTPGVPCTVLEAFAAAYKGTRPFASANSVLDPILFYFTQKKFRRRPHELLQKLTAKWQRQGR"}, "[10]": {"target": "T1, 168 GPCRs (Homo sapiens, UniProt P24530)", "T1 sequence (P24530 27-442)": "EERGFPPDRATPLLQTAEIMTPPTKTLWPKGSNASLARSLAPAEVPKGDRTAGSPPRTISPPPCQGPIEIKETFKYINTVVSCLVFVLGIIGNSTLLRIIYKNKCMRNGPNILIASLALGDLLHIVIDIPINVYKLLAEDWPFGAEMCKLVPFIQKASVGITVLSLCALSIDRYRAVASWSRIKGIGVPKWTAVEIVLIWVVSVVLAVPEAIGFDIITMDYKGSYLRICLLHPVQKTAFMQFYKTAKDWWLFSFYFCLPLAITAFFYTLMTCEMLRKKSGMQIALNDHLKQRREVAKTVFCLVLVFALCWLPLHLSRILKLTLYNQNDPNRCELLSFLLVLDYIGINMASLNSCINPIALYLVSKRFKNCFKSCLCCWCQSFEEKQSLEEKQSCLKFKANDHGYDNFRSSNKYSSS", "settings": "EDNRB"}, "[11]": {"target": "168 GPCRs (Homo sapiens, UniProt P29371)", "sequence (P29371 whole entry)": "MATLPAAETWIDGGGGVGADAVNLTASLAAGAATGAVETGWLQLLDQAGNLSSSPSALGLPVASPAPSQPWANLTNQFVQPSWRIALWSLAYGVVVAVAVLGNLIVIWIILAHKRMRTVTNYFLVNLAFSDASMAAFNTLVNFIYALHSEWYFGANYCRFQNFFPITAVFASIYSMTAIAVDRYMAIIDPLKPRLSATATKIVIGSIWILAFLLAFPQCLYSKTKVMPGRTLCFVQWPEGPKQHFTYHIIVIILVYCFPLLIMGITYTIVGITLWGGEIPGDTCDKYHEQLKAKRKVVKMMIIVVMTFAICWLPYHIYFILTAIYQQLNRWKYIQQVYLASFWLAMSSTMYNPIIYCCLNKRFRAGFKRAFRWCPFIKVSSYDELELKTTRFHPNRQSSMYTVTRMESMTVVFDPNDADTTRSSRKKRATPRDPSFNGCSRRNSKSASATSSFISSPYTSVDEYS"}, "[12]": {"target": "168 GPCRs (Homo sapiens, UniProt P35462)", "sequence (P35462 whole entry)": "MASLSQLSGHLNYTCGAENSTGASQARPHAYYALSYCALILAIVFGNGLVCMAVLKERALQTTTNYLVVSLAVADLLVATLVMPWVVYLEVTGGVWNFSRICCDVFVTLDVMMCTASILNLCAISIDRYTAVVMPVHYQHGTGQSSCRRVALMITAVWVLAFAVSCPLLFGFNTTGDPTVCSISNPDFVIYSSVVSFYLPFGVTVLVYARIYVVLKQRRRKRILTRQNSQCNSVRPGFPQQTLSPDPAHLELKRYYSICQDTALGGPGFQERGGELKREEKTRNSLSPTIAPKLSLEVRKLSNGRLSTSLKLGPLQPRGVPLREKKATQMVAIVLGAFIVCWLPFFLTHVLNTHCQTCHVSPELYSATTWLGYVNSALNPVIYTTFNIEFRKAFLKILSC"}, "[13]": {"target": "168 GPCRs (Homo sapiens, UniProt P21453)"}, "[14]": {"target": "168 GPCRs (Homo sapiens, UniProt P14416)", "sequence (P14416 whole entry)": "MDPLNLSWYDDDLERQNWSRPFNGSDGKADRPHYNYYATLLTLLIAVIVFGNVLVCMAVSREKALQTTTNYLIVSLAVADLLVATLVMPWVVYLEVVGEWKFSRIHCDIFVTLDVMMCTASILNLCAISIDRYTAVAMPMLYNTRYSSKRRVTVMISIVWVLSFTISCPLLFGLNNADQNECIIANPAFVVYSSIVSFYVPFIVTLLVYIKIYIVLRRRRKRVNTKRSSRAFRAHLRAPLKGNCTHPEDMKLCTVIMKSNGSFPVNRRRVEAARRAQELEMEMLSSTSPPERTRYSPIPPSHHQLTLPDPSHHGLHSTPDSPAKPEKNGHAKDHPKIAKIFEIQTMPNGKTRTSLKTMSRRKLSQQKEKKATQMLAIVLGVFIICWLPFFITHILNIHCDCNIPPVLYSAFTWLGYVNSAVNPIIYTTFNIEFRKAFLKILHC", "settings": "DRD2L"}, "[15]": {"target": "168 GPCRs (Homo sapiens, UniProt P32246)", "settings": "CCR1, Antagonist"}, "[16]": {"target": "168 GPCRs (Homo sapiens, UniProt P25116)", "settings": "F2R; Antagonist; 1 uM"}, "[17]": {"target": "168 GPCRs (Homo sapiens, UniProt P30411)", "sequence (P30411 whole entry)": "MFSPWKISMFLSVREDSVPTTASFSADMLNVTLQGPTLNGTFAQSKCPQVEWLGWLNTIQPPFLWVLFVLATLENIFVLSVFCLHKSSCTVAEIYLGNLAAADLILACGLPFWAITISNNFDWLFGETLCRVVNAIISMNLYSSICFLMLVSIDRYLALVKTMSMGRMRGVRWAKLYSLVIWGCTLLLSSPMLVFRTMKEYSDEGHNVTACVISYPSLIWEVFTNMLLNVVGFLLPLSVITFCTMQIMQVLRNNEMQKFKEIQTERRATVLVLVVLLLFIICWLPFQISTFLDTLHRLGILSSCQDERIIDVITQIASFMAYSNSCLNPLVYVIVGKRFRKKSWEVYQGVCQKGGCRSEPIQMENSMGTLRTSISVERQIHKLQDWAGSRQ", "settings": "BDKRB2, Antagonist"}, "[18]": {"target": "168 GPCRs (Homo sapiens, UniProt P21452)"}, "[19]": {"target": "168 GPCRs (Homo sapiens, UniProt Q9GZQ6)", "sequence (Q9GZQ6 whole entry)": "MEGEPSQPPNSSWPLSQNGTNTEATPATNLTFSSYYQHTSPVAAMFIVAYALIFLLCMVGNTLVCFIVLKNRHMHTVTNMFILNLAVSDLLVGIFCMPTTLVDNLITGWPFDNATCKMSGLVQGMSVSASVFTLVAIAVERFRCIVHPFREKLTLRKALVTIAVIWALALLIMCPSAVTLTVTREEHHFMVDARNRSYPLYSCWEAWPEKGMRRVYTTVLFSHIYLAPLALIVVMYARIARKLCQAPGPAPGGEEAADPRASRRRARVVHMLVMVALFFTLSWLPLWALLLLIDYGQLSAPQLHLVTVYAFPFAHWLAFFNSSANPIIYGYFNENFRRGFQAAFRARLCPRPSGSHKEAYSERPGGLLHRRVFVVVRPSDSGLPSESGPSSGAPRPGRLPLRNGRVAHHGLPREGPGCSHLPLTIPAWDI"}, "[20]": {"target": "168 GPCRs (Homo sapiens, UniProt Q9H1C0)"}},
  "data": [
    {"smiles": "CNC(C)C(=O)c1ccc2c(c1)OCO2", "note": "(stereo not drawn) [methylone, 3,4-methylenedioxy-N-methylcathinone]", "values": [
      {"measurement": "activity at 10 µM", "setting": "[1]; SSTR3, Antagonist mode, 10 uM", "result": 8, "unit": "%"},
      {"measurement": "activity at 1 µM", "setting": "[1]; SSTR3, Antagonist, 1 uM", "result": 13.2, "unit": "%"},
      {"measurement": "activity at 10 µM", "setting": "[2]; CXCR4, Antagonist mode, 10 uM", "result": -4.2, "unit": "%"},
      {"measurement": "activity at 1 µM", "setting": "[2]; CXCR4, Antagonist, 1 uM", "result": 10.7, "unit": "%"},
      {"measurement": "activity at 1 µM", "setting": "[3]; 1 uM", "result": 8.5, "unit": "%"},
      {"measurement": "activity at 10 µM", "setting": "[3]; 10 uM", "result": 6.3, "unit": "%"},
      {"measurement": "activity at 10 µM", "setting": "[4]; EDG5, Antagonist mode, 10 uM", "result": -6.3, "unit": "%"},
      {"measurement": "activity at 1 µM", "setting": "[4]; EDG5, Antagonist, 1 uM", "result": -3.4, "unit": "%"},
      {"measurement": "activity at 10 µM", "setting": "[5]; EDG6, Antagonist mode, 10 uM", "result": 7.8, "unit": "%"},
      {"measurement": "activity at 1 µM", "setting": "[5]; EDG6, Antagonist, 1 uM", "result": 13.2, "unit": "%"},
      {"measurement": "activity at 1 µM", "setting": "[6]; 1 uM", "result": 2.8, "unit": "%"},
      {"measurement": "activity at 10 µM", "setting": "[6]; 10 uM", "result": 12.1, "unit": "%"},
      {"measurement": "activity at 10 µM", "setting": "[7]; Antagonist mode, 10 uM", "result": -5.1, "unit": "%"},
      {"measurement": "activity at 1 µM", "setting": "[7]; Antagonist, 1 uM", "result": -1, "unit": "%"},
      {"measurement": "activity at 10 µM", "setting": "[8]; Antagonist mode, 10 uM", "result": -19.7, "unit": "%"},
      {"measurement": "activity at 1 µM", "setting": "[8]; Antagonist, 1 uM", "result": -5.5, "unit": "%"},
      {"measurement": "activity at 10 µM", "setting": "[9]; P2RY6, Antagonist mode, 10 uM", "result": 2.6, "unit": "%"},
      {"measurement": "activity at 1 µM", "setting": "[9]; P2RY6, Antagonist, 1 uM", "result": 6.5, "unit": "%"},
      {"measurement": "activity at 10 µM", "setting": "[10]; Antagonist mode, 10 uM", "result": 10.9, "unit": "%"},
      {"measurement": "activity at 1 µM", "setting": "[10]; Antagonist, 1 uM", "result": 17.5, "unit": "%"},
      {"measurement": "activity at 10 µM", "setting": "[11]; TACR3, Antagonist mode, 10 uM", "result": -14.3, "unit": "%"},
      {"measurement": "activity at 1 µM", "setting": "[11]; TACR3, Antagonist, 1 uM", "result": -3.9, "unit": "%"},
      {"measurement": "activity at 10 µM", "setting": "[12]; DRD3, Antagonist mode, 10 uM", "result": -17.8, "unit": "%"},
      {"measurement": "activity at 1 µM", "setting": "[12]; DRD3, Antagonist, 1 uM", "result": -12, "unit": "%"},
      {"measurement": "activity at 10 µM", "setting": "[13]; EDG1, Antagonist mode, 10 uM", "result": 10.5, "unit": "%"},
      {"measurement": "activity at 1 µM", "setting": "[13]; EDG1, Antagonist, 1 uM", "result": 12.4, "unit": "%"},
      {"measurement": "activity at 10 µM", "setting": "[14]; Antagonist mode, 10 uM", "result": 0.1, "unit": "%"},
      {"measurement": "activity at 1 µM", "setting": "[14]; Antagonist, 1 uM", "result": 1.1, "unit": "%"},
      {"measurement": "activity at 1 µM", "setting": "[15]; 1 uM", "result": -8.1, "unit": "%"},
      {"measurement": "activity at 10 µM", "setting": "[15]; 10 uM", "result": -16.6, "unit": "%"},
      {"measurement": "activity at 1 µM", "setting": "[16]", "result": -11.6, "unit": "%"},
      {"measurement": "activity at 1 µM", "setting": "[17]; 1 uM", "result": 7.3, "unit": "%"},
      {"measurement": "activity at 10 µM", "setting": "[17]; 10 uM", "result": -2.6, "unit": "%"},
      {"measurement": "activity at 10 µM", "setting": "[18]; TACR2, Antagonist mode, 10 uM", "result": 9.1, "unit": "%"},
      {"measurement": "activity at 1 µM", "setting": "[18]; TACR2, Antagonist, 1 uM", "result": 10, "unit": "%"},
      {"measurement": "activity at 10 µM", "setting": "[19]; NPFFR1, Antagonist mode, 10 uM", "result": 27.1, "unit": "%"},
      {"measurement": "activity at 1 µM", "setting": "[19]; NPFFR1, Antagonist, 1 uM", "result": 32, "unit": "%"},
      {"measurement": "activity at 10 µM", "setting": "[20]; GPR92, Antagonist mode, 10 uM", "result": 5.8, "unit": "%"},
      {"measurement": "activity at 1 µM", "setting": "[20]; GPR92, Antagonist, 1 uM", "result": -8, "unit": "%"}
    ]}
  ]
}
